One test concerns the target T1, CFTR ΔF508 mutant (Homo sapiens, UniProt P13569, DEL508-508).
T1 construct: expressed in transfected cells; host or cells: CFBE41o- (adenoviral transduction)
Briefly: YFP-halide influx assay for the CFTR-ΔF508 mutation (384 well, FDSS/μCell). In kind it is cell-based. The following applies: CFBE41o- cells, CFTR-ΔF508, 1×D-PBS, fluorescence after 36 seconds. From the text: The YFP halide influx assay measures the functionality of the cystic fibrosis Transmembrane Conductance regulator (CFTR) channels in the cystic fibrosis bronchial epithelium cell line CFBE41o-. The assay is used to evaluate the capacity of compounds to increase the open probability of existing CFTR channels in the membrane. It makes use of the observation that the yellow fluorescent protein (YFP) variant YFP H148Q, I152L has its fluorescence substantially quenched by halide ions like Cl— and I—. (Galietta, Haggie, & Verkman, 2001) (Nagai, et al., 2002)
For this purpose, CFBE41o-cells are seeded in 384 well plates (3000 CFBE cells/well). One day after seeding, the CFBE cells are transduced with adenoviral vectors that direct the expression of the CFTR ΔF508 mutant and of the YFP reporter. Cells are incubated at 27° C., 5% CO2 for 24 hours so as to allow for the proper folding and migration to the membrane of the CFTR channel or treated with a CFTR modulator during 24 h at 37° C.
The I— induced quenching of fluorescence is recorded […] immediately after injection of I— for 2 min on an FDSS/μCell (Hamamatsu). The capacity of a compound to increase the channel opening is directly correlated with the decrease in fluorescence, and is expressed as (1-(fluorescence after 36 seconds (F)/fluorescence before injection (F0))) and an EC50 can be derived from a (1-F/F0) vs compound concentration plot.

The next test has as its target T2, CFTR G551D mutant (Homo sapiens, UniProt P13569, G551D).
T2 construct: expressed in transfected cells; host or cells: HEK293 (reverse transfection with plasmid)
The experiment in a line: YFP-halide influx assay for the CFTR-G551D mutation. The format is cell-based. The following applies: HEK293 cells, forskolin 10.67 μM. From the text:
The YFP halide influx assay measures the functionality of the cystic fibrosis Transmembrane Conductance regulator (CFTR) channels. The assay is used to evaluate the capacity of compounds to increase the channel opening of existing mutant CFTR channels in the membrane. It makes use of the observation that the yellow fluorescent protein (YFP) variant YFP H148Q, I152L, […] has its fluorescence substantially quenched by halide ions like Cl^− and I^−. (Galietta, Haggie, & Verkman, 2001)
For this purpose, HEK293-cells are seeded in 96 well plates. During seeding, the cells are reverse-transfected with plasmid vectors that direct the expression of the CFTR G551D mutant and of the YFP reporter. Cells are incubated at 37° C., 5% CO2 for 24 hours so as to allow for sufficient expression of the CFTR protein.
The I^−-induced quenching of fluorescence is recorded immediately after injection of I^− for 7 seconds. The capacity of a compound to increase the channel opening is directly correlated with the decrease in fluorescence, and is expressed as (1-(fluorescence after 7 seconds (F)/fluorescence before injection (F0))) and an EC50 can be derived from a (1-F/F0) vs compound concentration plot.

This is an account of results in patent publication US9382254B2, “Compounds and pharmaceutical compositions thereof for the treatment of cystic fibrosis” (Galapagos NV, priority 2013, dated 2016).

pEC50: −log10 of the molar value.

Usually pEC50 stands for −log10 of the EC50, conventionally taken in molar units. A low value points to a large EC50.

T1 sequence (P13569 with tags, fused parts or gaps DEL508-508): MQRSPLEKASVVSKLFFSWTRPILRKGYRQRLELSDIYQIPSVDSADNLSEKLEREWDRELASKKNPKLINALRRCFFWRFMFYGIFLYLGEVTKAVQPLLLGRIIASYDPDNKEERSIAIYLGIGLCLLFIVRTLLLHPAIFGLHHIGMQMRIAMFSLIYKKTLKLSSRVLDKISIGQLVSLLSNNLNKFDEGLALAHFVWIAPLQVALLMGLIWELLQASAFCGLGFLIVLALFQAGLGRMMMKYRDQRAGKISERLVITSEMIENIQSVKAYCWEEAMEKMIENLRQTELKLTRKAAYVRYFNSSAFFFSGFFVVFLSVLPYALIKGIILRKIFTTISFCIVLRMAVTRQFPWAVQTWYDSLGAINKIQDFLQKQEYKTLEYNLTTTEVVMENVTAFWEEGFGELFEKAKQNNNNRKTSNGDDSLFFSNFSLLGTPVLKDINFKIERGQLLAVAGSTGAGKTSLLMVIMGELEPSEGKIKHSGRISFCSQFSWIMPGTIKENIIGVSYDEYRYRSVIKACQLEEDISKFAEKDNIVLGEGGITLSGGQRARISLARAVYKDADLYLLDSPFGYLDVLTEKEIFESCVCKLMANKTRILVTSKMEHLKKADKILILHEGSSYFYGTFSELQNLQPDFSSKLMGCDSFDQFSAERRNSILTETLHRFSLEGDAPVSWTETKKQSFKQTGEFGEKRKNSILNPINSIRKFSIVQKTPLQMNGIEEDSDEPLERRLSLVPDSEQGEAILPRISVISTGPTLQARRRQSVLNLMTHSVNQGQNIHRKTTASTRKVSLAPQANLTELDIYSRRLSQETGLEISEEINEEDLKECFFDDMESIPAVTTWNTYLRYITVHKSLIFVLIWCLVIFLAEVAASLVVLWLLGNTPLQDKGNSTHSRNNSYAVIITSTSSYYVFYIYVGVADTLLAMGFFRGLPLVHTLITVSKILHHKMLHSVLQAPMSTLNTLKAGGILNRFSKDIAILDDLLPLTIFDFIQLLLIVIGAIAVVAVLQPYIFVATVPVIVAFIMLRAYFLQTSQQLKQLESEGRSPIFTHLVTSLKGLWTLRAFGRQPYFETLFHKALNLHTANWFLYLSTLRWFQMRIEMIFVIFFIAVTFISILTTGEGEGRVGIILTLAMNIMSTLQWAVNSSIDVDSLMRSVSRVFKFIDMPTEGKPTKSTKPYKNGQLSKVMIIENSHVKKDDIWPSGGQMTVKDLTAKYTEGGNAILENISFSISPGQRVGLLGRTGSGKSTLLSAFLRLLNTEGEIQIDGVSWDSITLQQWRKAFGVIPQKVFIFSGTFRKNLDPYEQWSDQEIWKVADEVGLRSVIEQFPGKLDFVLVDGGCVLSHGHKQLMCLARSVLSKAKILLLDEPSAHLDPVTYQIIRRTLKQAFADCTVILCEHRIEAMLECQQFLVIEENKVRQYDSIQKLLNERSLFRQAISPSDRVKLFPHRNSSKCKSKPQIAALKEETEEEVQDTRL
T2 sequence (P13569 whole entry G551D): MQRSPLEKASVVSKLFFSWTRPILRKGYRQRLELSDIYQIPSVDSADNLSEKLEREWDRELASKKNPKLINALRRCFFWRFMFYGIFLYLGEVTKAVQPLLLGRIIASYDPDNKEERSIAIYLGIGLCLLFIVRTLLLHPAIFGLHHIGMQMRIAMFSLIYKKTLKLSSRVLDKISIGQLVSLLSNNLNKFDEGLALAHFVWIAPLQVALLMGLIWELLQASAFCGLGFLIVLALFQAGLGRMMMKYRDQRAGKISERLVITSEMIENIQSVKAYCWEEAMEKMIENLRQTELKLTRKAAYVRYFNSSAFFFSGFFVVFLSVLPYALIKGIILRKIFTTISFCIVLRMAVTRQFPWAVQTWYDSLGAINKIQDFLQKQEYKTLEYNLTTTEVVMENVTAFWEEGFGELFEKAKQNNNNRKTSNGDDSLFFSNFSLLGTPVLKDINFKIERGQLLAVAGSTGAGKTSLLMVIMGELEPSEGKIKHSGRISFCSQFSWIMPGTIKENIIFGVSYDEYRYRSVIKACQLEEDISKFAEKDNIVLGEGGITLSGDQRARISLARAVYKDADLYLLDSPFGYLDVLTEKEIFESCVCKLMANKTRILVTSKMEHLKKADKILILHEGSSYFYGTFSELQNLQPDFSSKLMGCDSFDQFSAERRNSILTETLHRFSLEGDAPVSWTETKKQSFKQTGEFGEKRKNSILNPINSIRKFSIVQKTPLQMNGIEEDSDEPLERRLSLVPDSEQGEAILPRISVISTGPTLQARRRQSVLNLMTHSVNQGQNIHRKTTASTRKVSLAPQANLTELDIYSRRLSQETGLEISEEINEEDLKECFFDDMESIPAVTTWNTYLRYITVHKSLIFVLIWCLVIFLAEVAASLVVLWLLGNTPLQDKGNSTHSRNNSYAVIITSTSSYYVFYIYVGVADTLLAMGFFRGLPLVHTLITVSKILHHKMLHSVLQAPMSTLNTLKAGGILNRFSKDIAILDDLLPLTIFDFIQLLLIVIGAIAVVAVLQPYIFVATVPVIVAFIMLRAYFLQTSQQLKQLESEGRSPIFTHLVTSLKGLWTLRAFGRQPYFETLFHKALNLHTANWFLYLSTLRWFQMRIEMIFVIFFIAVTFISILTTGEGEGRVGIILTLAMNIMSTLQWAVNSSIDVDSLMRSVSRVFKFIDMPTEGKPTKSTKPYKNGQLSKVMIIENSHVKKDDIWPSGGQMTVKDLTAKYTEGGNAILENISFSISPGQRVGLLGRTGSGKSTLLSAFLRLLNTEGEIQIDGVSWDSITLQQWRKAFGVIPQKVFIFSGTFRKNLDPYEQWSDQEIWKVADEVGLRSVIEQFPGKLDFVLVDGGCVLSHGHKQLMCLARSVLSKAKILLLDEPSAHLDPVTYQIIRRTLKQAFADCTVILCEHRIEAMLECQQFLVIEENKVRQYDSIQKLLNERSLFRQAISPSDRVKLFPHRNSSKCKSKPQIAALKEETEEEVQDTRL

`CC(O)C(=O)Nc1sc(S(=O)(=O)c2cc(F)ccc2C(F)(F)F)cc1C(N)=O` (centres unmarked) [Compound 335, 5-[5-fluoro-2-(trifluoromethyl)phenyl] sulfonyl-2-(2-hydroxypropanoylamino) thiophene-3-carboxamide]: the pEC50 is 8.24 on CFTR ΔF508 mutant and 6.97 at CFTR G551D mutant.
The matching figures for `CC(C)(O)C(=O)Nc1sc(S(=O)(=O)c2cc(F)c(F)cc2Cl)cc1C(N)=O` [Compound 336, 5-(2-Chloro-4,5-difluoro-benzenesulfonyl)-2-(2-hydroxy-2-methyl-propionylamino)-thiophene-3-carboxylic acid amide]: 7.91 and 6.06.
On the same counts, the results for `CC(C)(O)C(=O)Nc1sc(S(=O)(=O)c2cccc(C#N)c2)cc1C(N)=O` [Compound 409, 5-(3-cyanophenyl)sulfonyl-2-[(2-hydroxy-2-methyl-propanoyl)amino] thiophene-3-carboxamide] are 7.32 and 5.63.
At CFTR G551D mutant, `CC(O)C(=O)Nc1sc(S(=O)(=O)c2c(Cl)cc(F)cc2Cl)cc1C(N)=O` (single isomer, unassigned; enantiomer 1) [Compound 354] showed a pEC50 of 5.90.
In the case of `CC(C)[C@H](O)C(=O)Nc1sc(S(=O)(=O)c2ccc(F)cc2C(F)(F)F)cc1C(N)=O` [Compound 356, 5-[4-fluoro-2-(trifluoromethyl)phenyl] sulfonyl-2-[[(2S)-2-hydroxy-3-methyl-butanoyl]amino] thiophene-3-carboxamide], the values for the pEC50 on CFTR ΔF508 mutant and at CFTR G551D mutant were 7.76 and 6.30, respectively.
On the same counts, the results for `CC(O)C(=O)Nc1sc(S(=O)(=O)c2ccc(OC(F)(F)F)cc2Cl)cc1C(N)=O` (centres unmarked) [Compound 328, 5-[2-chloro-4-(trifluoromethoxy)phenyl] sulfonyl-2-(2-hydroxypropanoylamino) thiophene-3-carboxamide] are 7.59 and 6.37.
For the compound `CC(C)(C)C(O)C(=O)Nc1sc(S(=O)(=O)c2ccc(F)cc2)cc1C(N)=O` (centres unmarked) [Compound 342, 5-(4-fluorophenyl)sulfonyl-2-[(2-hydroxy-3,3-dimethyl-butanoyl)amino] thiophene-3-carboxamide], the values for the pEC50 at CFTR ΔF508 mutant and on CFTR G551D mutant were 6.98 and 6.11, respectively.
The matching figures for `CC(C)(O)C(=O)Nc1sc(S(=O)(=O)c2ccc(Cl)cc2)cc1C(N)=O` [Compound 358, 5-(4-chlorophenyl)sulfonyl-2-[(2-hydroxy-2-methyl-propanoyl)amino] thiophene-3-carboxamide]: 6.96 and 5.57.
On to `CC(CO)C(=O)Nc1sc(S(=O)(=O)c2ccc(F)cc2C(F)(F)F)cc1C(N)=O` (centres unmarked) [Compound 359, 5-[4-fluoro-2-(trifluoromethyl)phenyl] sulfonyl-2-[(3-hydroxy-2-methyl-propanoyl)amino] thiophene-3-carboxamide], for which the pEC50 on CFTR ΔF508 mutant was 8.02; at CFTR G551D mutant, 5.69.
On to `Cc1ncccc1S(=O)(=O)c1cc(C(N)=O)c(NC(=O)C(C)O)s1` (centres unmarked) [Compound 326, 2-(2-hydroxypropanoylamino)-5-[(2-methyl-3-pyridyl)sulfonyl] thiophene-3-carboxamide], for which the pEC50 at CFTR ΔF508 mutant was 5.98; at CFTR G551D mutant (class symbol), less than 6.00.
For the compound `CC(C)(O)C(=O)Nc1sc(S(=O)(=O)c2ccc(Cl)cc2OC(F)(F)F)cc1C(N)=O` [Compound 388, 5-[4-chloro-2-(trifluoromethoxy)phenyl] sulfonyl-2-[(2-hyroxy-2-methyl-propanoyl)amino] thiophene-3-carboxamide], the pEC50 on CFTR ΔF508 mutant is 7.36; at CFTR G551D mutant, 6.16.
For the compound `C[C@H](O)C(=O)Nc1sc(S(=O)(=O)c2ccc(F)cc2C(F)(F)F)cc1C(N)=O` (single isomer, unassigned; enantiomer 1) [Compound 348], the results for the pEC50 at CFTR ΔF508 mutant and on CFTR G551D mutant were 7.79 and 5.59, respectively.
On the same counts, the results for `CC(C)(O)C(=O)Nc1sc(S(=O)(=O)c2ccc(Cl)nc2)cc1C(N)=O` [Compound 385, 5-[(6-chloro-3-pyridyl)sulfonyl]-2-[(2-hydroxy-2-methyl-propanoyl)amino] thiophene-3-carboxamide] are 7.20 and 5.93.
The matching figures for `CC(C)Oc1ccc(S(=O)(=O)c2cc(C(N)=O)c(NC(=O)C(C)(C)O)s2)c(F)c1` [Compound 315, 5-(2-Fluoro-4-isopropoxy-benzenesulfonyl)-2-(2-hydroxy-2-methyl-propionylamino)-thiophene-3-carboxylic acid amide]: 7.37 and 6.08.
`CC(C)Oc1ccc(S(=O)(=O)c2cc(C(N)=O)c(NC(=O)C(C)(C)O)s2)c(Cl)c1` [Compound 322, 5-(2-Chloro-4-isopropoxy-benzenesulfonyl)-2-(2-hydroxy-2-methyl-propionylamino)-thiophene-3-carboxylic acid amide]: the pEC50 on CFTR ΔF508 mutant is 7.39; at CFTR G551D mutant it was 6.04.
The matching figures for `CC(C)C(O)C(=O)Nc1sc(S(=O)(=O)c2ccc(OC(F)(F)F)cc2)cc1C(N)=O` (centres unmarked) [Compound 345, 2-[(2-hydroxy-3-methyl-butanoyl)amino]-5-[4-(trifluoromethoxy)phenyl] sulfonyl-thiophene-3-carboxamide]: 6.95 and 6.28.
On the same counts, the results for `CC(O)C(=O)Nc1sc(S(=O)(=O)c2ccc(OC(F)(F)F)cc2)cc1C(N)=O` (centres unmarked) [Compound 318, 2-(2-Hydroxy-propionylamino)-5-(4-trifluoromethoxy-benzenesulfonyl)-thiophene-3-carboxylic acid amide] are 7.69 and 6.14.
Consider `NC(=O)c1cc(S(=O)(=O)c2ccc(OC(F)(F)F)cc2)sc1NC(=O)C1(CO)CCC1` [Compound 364, 2-[[1-(hydroxymethyl)cyclobutanecarbonyl]amino]-5-[4-(trifluoromethoxy)phenyl] sulfonyl-thiophene-3-carboxamide], for which the figures for the pEC50 at CFTR ΔF508 mutant and on CFTR G551D mutant were 7.52 and 6.44, respectively.
On the same counts, the results for `CC(CO)C(=O)Nc1sc(S(=O)(=O)c2ccc(OC(F)(F)F)cc2)cc1C(N)=O` (centres unmarked) [Compound 350, 2-[(3-hydroxy-2-methyl-propanoyl)amino]-5-[4-(trifluoromethoxy)phenyl] sulfonyl-thiophene-3-carboxamide] are 7.41 and 6.18.
The compound `C[C@H](O)C(=O)Nc1sc(S(=O)(=O)c2ccc(C(F)(F)F)cc2F)cc1C(N)=O` [Compound 445, 5-[2-fluoro-4-(trifluoromethyl)phenyl] sulfonyl-2-[[(2S)-2-hydroxypropanoyl]amino] thiophene-3-carboxamide] showed a pEC50 on CFTR ΔF508 mutant of 7.71.
Same read-out and setting: as for `C[C@H](O)C(=O)Nc1sc(S(=O)(=O)c2ccc(OC(F)(F)F)cc2F)cc1C(N)=O` [Compound 444, 5-[2-fluoro-4-(trifluoromethoxy)phenyl] sulfonyl-2-[[(2S)-2-hydroxypropanoyl]amino] thiophene-3-carboxamide], the figure is 7.71.
Consider “2-[[(2S)-2-hydroxy-3-methyl- butanoyl]amino]-5-[4- (trifluoromethyl)phenyl] sulfonyl-thiophene-3- carboxamide [Compound 366]”, for which the pEC50 on CFTR G551D mutant was 6.34; at CFTR G551D mutant (class symbol), 6.30 to 7.00.
On CFTR ΔF508 mutant, `CC(C)(CO)C(=O)Nc1sc(S(=O)(=O)c2ccc(OC(F)(F)F)cc2)cc1C(N)=O` [Compound 446, 2-[(3-hydroxy-2,2-dimethyl-propanoyl)amino]-5-[4-(trifluoromethoxy)phenyl] sulfonyl-thiophene-3-carboxamide] had a pEC50 of 7.38.
In the case of “5-(4-fluoro-2-(methoxymethyl) phenylsulfonyl)-2-(2-hydroxy- 2-methylpropanamido) thiophene-3-carboxamide [Compound 300]”, the pEC50 at CFTR G551D mutant is 5.76; on CFTR G551D mutant (class symbol), less than 6.00.
The compound “5-[[5-bromo-6- (trifluoromethyl)-3-pyridyl] sulfonyl]-2-[(2-hydroxy-2- methyl-propanoyl)amino] thiophene-3-carboxamide [Compound 441]” gave a pEC50 at CFTR G551D mutant (class symbol) of less than 6.00.
Consider “5-(4-chlorophenyl)sulfonyl-2- [[(2S)-2-hydroxy-3- methyl-butanoyl]amino] thiophene-3-carboxamide [Compound 367]”, for which the pEC50 at CFTR G551D mutant was 6.10; at CFTR G551D mutant (class symbol), 6.00 to 6.30.
